The results in this text go back to US20230265435A1, “COMPOSITION COMPRISING OSTEOPONTIN INHIBITOR AS ACTIVE INGREDIENT FOR PREVENTION, ALLEVIATION, OR TREATMENT OF NEURODEGENERATIVE DISEASE” (THE CATHOLIC UNIVERSITY OF KOREA INDUSTRY-ACADEMIC …, priority 2020, published 2023).

This data set relates to neural stem cells. Briefly: Amyloid beta toxicity, MTT assay, OPN antagonist treatment. The class given is cell-based. The method, then:
Next, to confirm the function of the OPN protein for amyloid beta neurotoxicity, the inventors confirmed the level of amyloid beta toxicity according to the treatment of an OPN antagonist or OPN siRNA using neuronal cells.
Specifically, approximately 5×10^4 neural stem cells were seeded in a 24-well plate, and cultured at 37° C. in a CO2 incubator for 24 hours. The medium in the cell-containing plate was replaced with an antibiotic-free, 0.1% serum-containing medium, treated with 0.5 μM levocetirizine (Sigma-Aldrich, L7795, OPN antagonist), and after 6 to 7 hours, the cells were further treated with 3 μM amyloid beta, and after 48 hours of culture, cell viability was confirmed through an MTT assay.

As for amyloid beta, the cell viability entry (neural stem cells treated with 3 μM amyloid beta alone) is “approximately 60%”. Turning to levocetirizine, under “0.5 μM levocetirizine with 3 μM amyloid beta, 48 hours”, the amyloid beta toxicity entry is given as “greatly decreased”.
